The values below come from ChEMBL document CHEMBL1201862, “PubChem BioAssay data set” (2004).

Some test systems named below: ACHN; DU-145; HOP-92; HT-29; IGROV-1; K562; MCF7; Malme-3M; NCI-H522; NCI/ADR-RES; OVCAR-3; SF-268; SF-295; SN12C; SNB-75; T47D; TK-10; EKVX; HL-60; M14.
What all share (test): inhibition of tumour cell growth, NCI panel, 48 h

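96-well plates; 48 h exposure; 5 concentrations. Endpoints by linear interpolation between flanking doses. Not reached: highest tested concentration assigned. Here, GI50 denotes the concentration required for 50% inhibition of growth.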 Activity calls are given as the source filed them. Rule as the data show it: active = GI50 up to about 1.1 µM and inactive = higher.

For the compound `O=C1c2ccccc2C(=O)N1n1c(Cc2ccc([N+](=O)[O-])cc2)n[nH]c1=O`, the GI50 with ACHN, with DU-145, with HOP-92, in the assay with HT-29, with IGROV-1 and with K562 was > 100 µM (inactive) throughout. Also, the GI50 with MCF7, with Malme-3M, in the assay on NCI-H522, in the assay on NCI/ADR-RES, in the assay on OVCAR-3 and in the assay with SF-268 was > 100 µM (inactive) each time. Besides, the GI50 in the assay with SF-295 is > 100 µM (inactive); with SN12C it was > 100 µM (inactive); in the assay on SNB-75, > 100 µM (inactive); in the assay with T47D, 23.3 µM (inactive); in the assay on TK-10, > 100 µM (inactive).
Regarding `O=C1C(=C(C(=O)c2ccccc2)C(=O)c2ccccc2)OC(c2ccccc2)=C1C(=O)c1ccccc1`, the GI50 is 4.88 µM (inactive) in the assay with ACHN; 9.06 µM (inactive) with DU-145; 8.28 µM (inactive) in the assay on EKVX; 6.84 µM (inactive) in the assay with HL-60; 7.19 µM (inactive) in the assay with HOP-92; 11.7 µM (inactive) in the assay on HT-29. The GI50 with IGROV-1 is 0.164 µM (active); in the assay on K562 it was 6.03 µM (inactive); with M14 it was 7.41 µM (inactive); in the assay with MCF7, 1.85 µM (inactive); with Malme-3M, 12.6 µM (inactive); in the assay with NCI-H522, 1.22 µM (inactive). Also, the GI50 in the assay on NCI/ADR-RES is 5.2 µM (inactive); with OVCAR-3 it was 5.86 µM (inactive); in the assay on SF-268, 3.8 µM (inactive); in the assay with SF-295 it was 4.79 µM (inactive); with SN12C, 3.29 µM (inactive); in the assay on T47D, 12 µM (inactive). Moreover, the GI50 with TK-10 was 9.35 µM (inactive).
Turning to `COc1ccc(C(C)c2cc3c(cc2O)OCO3)cc1` (stereo not drawn), the GI50 was 19.7 µM (inactive) in the assay with ACHN; 18.6 µM (inactive) with DU-145; 20.3 µM (inactive) in the assay on EKVX; 13.2 µM (inactive) with HL-60; 16.3 µM (inactive) in the assay on HOP-92; 12.6 µM (inactive) in the assay with HT-29. Besides, the GI50 with IGROV-1 was 15.8 µM (inactive); with K562, 6 µM (inactive); in the assay on M14, 13.8 µM (inactive); in the assay on MCF7, 15.1 µM (inactive); in the assay with NCI-H522 it was 11.4 µM (inactive); in the assay with NCI/ADR-RES it was 10.8 µM (inactive). For the same compound, the GI50 is 13.9 µM (inactive) in the assay with OVCAR-3; 14.9 µM (inactive) with SF-268; 14.3 µM (inactive) with SF-295; 18.6 µM (inactive) in the assay on SN12C; 20.3 µM (inactive) in the assay on SNB-75; 24.9 µM (inactive) in the assay with T47D. Further, the GI50 in the assay with TK-10 was 16.3 µM (inactive).
Take `COC(=O)C1(Cc2cccc(Cl)c2)CCCCCCN1C(=O)c1ccccc1` (stereo not drawn): the GI50 with ACHN was 9.46 µM (inactive); in the assay with DU-145 it was 19.3 µM (inactive); in the assay on EKVX, 12 µM (inactive); with HL-60 it was 5.97 µM (inactive); with HOP-92 it was 14.3 µM (inactive); in the assay on HT-29, 12.9 µM (inactive). For the same compound, the GI50 was 19.1 µM (inactive) in the assay with IGROV-1; 10.7 µM (inactive) in the assay on K562; 17.9 µM (inactive) in the assay with M14; 13.5 µM (inactive) with MCF7; 12.2 µM (inactive) with Malme-3M; 16.9 µM (inactive) in the assay with NCI/ADR-RES. Moreover, the GI50 was 6.71 µM (inactive) with OVCAR-3; 20.6 µM (inactive) in the assay on SF-268; 6.98 µM (inactive) in the assay with SF-295; 14.5 µM (inactive) in the assay with SN12C; 13 µM (inactive) in the assay on SNB-75; 14.4 µM (inactive) in the assay with T47D. In the assay with TK-10, the GI50 is 12 µM (inactive).
Turning to `CC(=O)O[C@H]1CCC2[C@@H]3CCC4NC(=O)C(C#N)C[C@]4(C)C3CC[C@@]21C` (stereo partly drawn), the GI50 with ACHN is > 10 µM (inactive); with DU-145 it was > 10 µM (inactive); in the assay with EKVX, 8.17 µM (inactive); with HL-60, > 10 µM (inactive); with HOP-92, > 10 µM (inactive); with HT-29 it was > 10 µM (inactive). The GI50 in the assay on IGROV-1, with K562, in the assay on M14, with MCF7, in the assay with Malme-3M and in the assay with NCI/ADR-RES was > 10 µM (inactive) each time. The GI50 in the assay on OVCAR-3, with SF-268, with SF-295, with SN12C, in the assay on T47D and with TK-10 was > 10 µM (inactive) in each case.
As for `CCCC(CC)c1c(O)c(O)c(C(CC)CCC)c(C(CC)CCC)c1C(CC)CCC` (stereo not drawn), the GI50 in the assay on ACHN, in the assay on DU-145, in the assay with EKVX, with HL-60, in the assay on HOP-92 and with HT-29 was > 10 µM (inactive) throughout. The GI50 with IGROV-1, in the assay with K562, in the assay with M14, with MCF7, in the assay with Malme-3M and in the assay on NCI-H522 was > 10 µM (inactive) each time. For the same compound, the GI50 in the assay on NCI/ADR-RES, in the assay on OVCAR-3, in the assay on SF-268, in the assay with SF-295, in the assay on SN12C and in the assay on T47D was > 10 µM (inactive) in each case. In the assay on TK-10, the GI50 is > 10 µM (inactive).
With `O=C1OC(c2ccccc2)N/C1=C\c1ccc2c(c1)OCO2` (stereo not drawn), the GI50 in the assay with ACHN was > 100 µM (inactive); in the assay with DU-145, > 100 µM (inactive); with EKVX, > 100 µM (inactive); in the assay with HL-60, 0.219 µM (active); in the assay on HOP-92 it was > 100 µM (inactive); in the assay with HT-29, > 100 µM (inactive). The GI50 is 48.6 µM (inactive) in the assay on IGROV-1; > 100 µM (inactive) with K562; > 74 µM (inactive) with M14; > 100 µM (inactive) in the assay on MCF7; 35.6 µM (inactive) in the assay on NCI-H522; > 52.2 µM (inactive) with NCI/ADR-RES. Further, the GI50 with OVCAR-3 is 79.3 µM (inactive); in the assay on SF-268 it was > 100 µM (inactive); in the assay on SF-295, > 100 µM (inactive); with SN12C, > 100 µM (inactive); in the assay on SNB-75, 98.9 µM (inactive); with T47D, > 100 µM (inactive). Besides, the GI50 with TK-10 was > 100 µM (inactive).
Consider `Cc1ccc(O)c(C2=CC(c3cccc(Cl)c3)SC(=N)N2)c1` (stereo not drawn), for which the GI50 in the assay on ACHN is 24.2 µM (inactive); in the assay with DU-145, 46.5 µM (inactive); in the assay on EKVX, 17.1 µM (inactive); in the assay with HL-60, 30 µM (inactive); in the assay with HOP-92 it was 10.8 µM (inactive); in the assay on HT-29 it was 20.8 µM (inactive). Further, the GI50 in the assay on IGROV-1 was 19.1 µM (inactive); in the assay with K562, 19.4 µM (inactive); in the assay on M14 it was 26 µM (inactive); with MCF7 it was 29.9 µM (inactive); in the assay on Malme-3M it was 24.2 µM (inactive); in the assay with NCI-H522, 16.1 µM (inactive). Moreover, the GI50 in the assay with NCI/ADR-RES was 29.2 µM (inactive); in the assay on OVCAR-3, 29.5 µM (inactive); in the assay with SF-268 it was 32.2 µM (inactive); with SF-295, 17.8 µM (inactive); with SN12C it was 16.9 µM (inactive); with T47D it was 23.8 µM (inactive). For the same compound, in the assay on TK-10, the GI50 is 22.4 µM (inactive).
On to `CCOP(=O)(CN1CCNCCNCC1)OCC`, for which the GI50 with ACHN is > 100 µM (inactive); in the assay on DU-145, > 100 µM (inactive); in the assay with EKVX, > 100 µM (inactive); in the assay with HL-60, 92.7 µM (inactive); with HOP-92 it was > 100 µM (inactive); in the assay with HT-29, > 100 µM (inactive). The GI50 with IGROV-1, in the assay on K562, in the assay on M14, in the assay with MCF7, with NCI-H522 and in the assay with NCI/ADR-RES was > 100 µM (inactive) throughout. Further, the GI50 is > 100 µM (inactive) in the assay on OVCAR-3; > 100 µM (inactive) in the assay on SF-295; > 100 µM (inactive) in the assay on SN12C; 26.6 µM (inactive) in the assay with SNB-75; > 100 µM (inactive) with T47D; > 100 µM (inactive) in the assay with TK-10.
For the compound `Cc1cc(S(=O)(=O)Nc2n[nH]c(-c3ccc(Cl)cn3)n2)c(S)cc1Cl`, the GI50 is 32.9 µM (inactive) in the assay on ACHN; > 100 µM (inactive) in the assay on DU-145; > 100 µM (inactive) in the assay with EKVX; 42 µM (inactive) in the assay on HL-60; 9.04 µM (inactive) in the assay with HOP-92; 39.3 µM (inactive) in the assay with HT-29. For the same compound, the GI50 in the assay on IGROV-1 is 44.4 µM (inactive); in the assay on M14, 76.6 µM (inactive); in the assay with MCF7, 74.1 µM (inactive); in the assay on Malme-3M it was > 100 µM (inactive); with NCI-H522, 46.1 µM (inactive); with NCI/ADR-RES, 85.5 µM (inactive). The GI50 with OVCAR-3 was 45.6 µM (inactive); with SF-268, 54.7 µM (inactive); in the assay with SN12C it was > 100 µM (inactive); with SNB-75, 80.9 µM (inactive); in the assay with T47D, 31 µM (inactive); in the assay with TK-10, > 100 µM (inactive).
As for `N#Cc1c(N)oc(-c2ccc([N+](=O)[O-])cc2)c1C#N`, the GI50 in the assay on ACHN is 27.2 µM (inactive); with DU-145 it was 23.6 µM (inactive); in the assay with EKVX it was 8.67 µM (inactive); in the assay on HL-60, > 100 µM (inactive); in the assay with HOP-92, 24.1 µM (inactive); with HT-29, 34.4 µM (inactive). For the same compound, the GI50 in the assay with IGROV-1 is 18.5 µM (inactive); in the assay on M14, 75.3 µM (inactive); in the assay with MCF7, 35 µM (inactive); in the assay with Malme-3M, 26.7 µM (inactive); with NCI-H522, 21.4 µM (inactive); in the assay on NCI/ADR-RES, 18.7 µM (inactive). For the same compound, the GI50 in the assay with SF-268 was 19.5 µM (inactive); in the assay with SF-295, 19.2 µM (inactive); in the assay on SN12C, 24.2 µM (inactive); with SNB-75 it was 17.7 µM (inactive); in the assay on T47D it was 27.2 µM (inactive); in the assay with TK-10 it was 28.4 µM (inactive).
